# What was measured:
# [1] = tested on: mupirocin resistant strains of S. epidermidis; assay: activity against mupirocin resistant strains; type: cell-based
# [2] = dermal pharmacokinetics on full thickness human cadaver skin (Franz cells); type: in vitro ADME; conditions: 2% w/w in GLAXAL BASE
# Description: Full thickness human skin was taken from the torso of a post-mortem human donor and stores at −80 degrees Celsius. On the day of the study, skin pieces were thawed for at least […] at room temperature in saline, then divided into individual pieces of approximately 2 cm length×2 cm width from which seven pieces of full thickness skin was selected. Approximately ⅔ of the width of the hypodermis layer was trimmed in order to mount the selected pieces into Franz cells. Receiver buffer was prepared (Krebs-Ringer bicarbonate buffer containing 10 mM HEPES, 15 mM sodium bicarbonate, and 1.2 mM calcium chloride; adjusted to pH 7.4 and fortified with 0.1% sodium azide and 1% bovine serum albumin). Each piece was equilibrated for 30 min with 12 mL of receiver buffer at 32 degrees Celsius by a water-jacket/stirring module running at 600 rpm. Transepithelial water loss was read for each piece after 30 mins using a vapometer. Exposed surface area of the piece was 1.77 square cm.
# Approximately 300 ul of 5-(2,5-bis(4-chloro-2-isopropylphenyl)thiophen-3-yl)-1H-tetrazole formulated in 2% w/w GLAXAL BASE™ (Emollient Cream) was applied directly through syringe on top of each piece. Receiver samples were taken from the receiver compartment of each Franz cell at 3, 6, 12, 18, and 24 hours and replaced with an equal volume of fresh, warm buffer to maintain sink conditions. At the end of 24 hours, the bulk amount of formulation remaining on each piece of skin was wiped using cotton tips, stored together in a dry vial for analysis. Epidermis and dermis were then separated gently using forceps after a brief heat treatment at 60 degrees Celsius for no longer than 2 minutes. Each layer was then blotted dry, weighted and stored in separate glass vials. All samples were stored at −80 degrees Celsius until analysis by LC/MS-MS.
# The cumulative concentrations of 5-(2,5-bis(4-chloro-2-isopropylphenyl)thiophen-3-yl)-1H-tetrazole that permeated at each time point were calculated by the sum of the measured concentration at that time point plus 1/12 of the measured concentrations at the previous time points (since 1 mL out of the 12 mL total receiver volume is withdrawn and replaced each time). The flux values over the course of the 24 hour permeation period were calculated from the slope of the linear portion of the curve. Flux was represented by the equation Flux=d[(Cr-T×Vr)/dt/A where Cr-T is the cumulative concentration at each time point (ng/mL); Vr is 12 mL; t is duration in hours; and A is the surface area of 1.77 square cm.
# [3] = end of 24 hour permeation, LC-MS/MS
smiles,measurement,setting,value
"CC(C)c1cc(Cl)ccc1-c1cc(-c2nnn[nH]2)c(-c2ccc(Cl)cc2C(C)C)s1 [Test Article, 5-(2,5-bis(4-chloro-2-isopropylphenyl)thiophen-3-yl)-1H-tetrazole]",activity,[1],retained activity
same,Flux from top through to bottom of skin,[2]; 24 hour permeation period,less than 0.141 ng/hr/cm^2
same,compound in the receiver samples,"[2]; end of 24 hour permeation period, lower limit of detection 0.5 ng/mL",no detectable
same,level in dermis,[2]; [3],0.821±0.469 ng per mg tissue
same,level in epidermis,[2]; [3],163±58.0 ng per mg tissue
same,level in hypodermis,[2]; [3],1.86±1.04 ng per mg tissue
